pIC50: −log10 of the molar value. Like-named read-outs stand apart in the source and are kept apart here.
Legend:
[1] = system: K562 (chronic myelogenous leukaemia); experiment: Effect of compounds on tumor cell lines (assay of Latham et al.), K562; type: cell-based; details: Homo sapiens, Table 4, K562 cells, examined 96 hours after treatment, 1 μM to 100 μM in DMSO
Outline: (§1)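 After 96 h of exposure to compound (1–100 μM in DMSO; one compound at 0.1–100 μM), effects were scored by inverted-microscope inspection, with trypan blue viable counts by hemacytometer when required. Cells were seeded at 2.5×10^4 per well and dosed 24 h after plating.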

DU145 (prostate cancer) = experiment: Effect of compounds on tumor cell lines (assay of Latham et al.), DU145; type: cell-based; details: Homo sapiens, DU-145, Table 4, DU145 cells, examined 96 hours after treatment, 1 μM to 100 μM in DMSO
Outline: as §1

[2] = read-out: DU 145 potency (IC50)

SMILES	melting point [°C]	pIC50 ([1]; read-out: K 562 potency (IC50))	pIC50 (DU145 (prostate cancer); [2])	pIC50 ([1]; read-out: K 562 potency (IC50), given as number)	pIC50 (DU145 (prostate cancer); read-out: DU 145 potency (IC50), given as number)
COc1ccccc1/C=C(\C(=O)c1ccc(Cl)cc1)S(=O)(=O)Cc1ccc(Cl)c(Cl)c1 [Example 364]	154 to 157	5.00 to 6.00	5.00 to 6.00		
O=C(/C(=C\c1ccc(O)cc1)S(=O)(=O)Cc1ccc(Cl)c(Cl)c1)c1ccc(Cl)cc1 [Example 366]	195 to 198	4.60 to 5.00	4.60 to 5.00		
COc1ccc(C(=O)/C(=C\c2ccc(Br)cc2)S(=O)(=O)Cc2ccc(Br)cc2)cc1 [Example 371]	146 to 148	5.00 to 6.00	5.00 to 6.00		
O=C(/C(=C\c1ccc(O)c([N+](=O)[O-])c1)S(=O)(=O)Cc1ccc(Br)cc1)c1ccc(Br)cc1 [Example 374]	110 to 112	5.00 to 6.00	4.60 to 5.00		
COc1ccc(/C=C(\C(=O)c2ccc(Cl)cc2)S(=O)(=O)Cc2ccc(Cl)cc2)c(OC)c1OC [Example 375]	148 to 151	5.00 to 6.00	4.60 to 5.00		
O=C(/C(=C\c1cc(Cl)cc(Cl)c1Cl)S(=O)(=O)Cc1ccc(Cl)cc1)c1ccc(Br)cc1 [Example 376]	181 to 188	5.00 to 6.00	5.00 to 6.00		
O=C(/C(=C\c1c(O)cc(O)cc1O)S(=O)(=O)Cc1ccc(Cl)cc1)c1ccc(Cl)cc1 [Example 377]	232 to 236	< 4.00	< 4.00		
COc1cc(OC)c(/C=C(\C(=O)c2ccc(Br)cc2)S(=O)(=O)Cc2ccc(Cl)cc2)c(OC)c1 [Example 378]	207 to 210	4.30 to 4.60	4.30 to 4.60		
COc1cc(OC)c(/C=C(\C(=O)c2ccc([N+](=O)[O-])cc2)S(=O)(=O)Cc2ccc(Cl)cc2)c(OC)c1 [Example 379]	62 to 64	4.60 to 5.00	4.60 to 5.00		
Cc1ccc(C)c(/C=C(\C(=O)c2ccc(Cl)cc2)S(=O)(=O)Cc2ccc(Cl)cc2)c1 [Example 380]	129 to 136	4.60 to 5.00	4.60 to 5.00		
O=C(/C(=C\c1ccccc1OCc1ccccc1)S(=O)(=O)Cc1ccc(Cl)cc1)c1ccc(Br)cc1 [Example 381]	136 to 142	5.00 to 6.00	4.60 to 5.00		
COc1ccc(/C=C(\C(=O)c2ccc(Br)cc2)S(=O)(=O)Cc2ccc(Cl)cc2)c(O)c1 [Example 382]	72 to 78	4.60 to 5.00	4.60 to 5.00		
COc1ccccc1/C=C(\C(=O)c1ccc(Cl)cc1)S(=O)(=O)Cc1ccc(Cl)cc1 [Example 383]	135 to 142	4.30 to 4.60	4.30 to 4.60		
COc1ccccc1/C=C(\C(=O)c1ccc([N+](=O)[O-])cc1)S(=O)(=O)Cc1ccc(Cl)cc1 [Example 384]	136 to 141	4.60 to 5.00	4.60 to 5.00		
Cc1cc(C)cc(/C=C(\C(=O)c2ccc(Cl)cc2)S(=O)(=O)Cc2ccc(Cl)cc2)c1 [Example 385]	146 to 152	5.00 to 6.00	5.00 to 6.00		
CCOc1cc(/C=C(\C(=O)c2ccc(Cl)cc2)S(=O)(=O)Cc2ccc(Cl)cc2)ccc1O [Example 386]	134 to 139	4.60 to 5.00	4.60 to 5.00		
COc1ccsc1/C=C(\C(=O)c1ccc(Br)cc1)S(=O)(=O)Cc1ccc(Cl)cc1 [Example 387]	128 to 136	4.30 to 4.60	4.00 to 4.30		
Cc1ccsc1/C=C(\C(=O)c1ccc(Cl)cc1)S(=O)(=O)Cc1ccc(Cl)cc1 [Example 388]	130 to 139	4.30 to 4.60	4.30 to 4.60		
Cc1ccsc1/C=C(\C(=O)c1ccc([N+](=O)[O-])cc1)S(=O)(=O)Cc1ccc(Cl)cc1 [Example 389]	174 to 179	5.00 to 6.00	5.00 to 6.00		

SMILES	melting point [°C]	pIC50 ([1]; read-out: K 562 potency (IC50))	pIC50 (DU145 (prostate cancer); [2])	pIC50 ([1]; read-out: K 562 potency (IC50), given as number)	pIC50 (DU145 (prostate cancer); read-out: DU 145 potency (IC50), given as number)
O=C(/C(=C\c1ccc(OCc2ccccc2)cc1)S(=O)(=O)Cc1ccc(Cl)cc1)c1ccc(Cl)cc1 [Example 391]	91 to 99	5.00 to 6.00	5.00 to 6.00		
O=C(/C(=C\c1ccc(Br)cc1)S(=O)(=O)Cc1ccc(Cl)cc1)c1ccc(Cl)cc1 [Example 392]	100 to 103	4.60 to 5.00	4.60 to 5.00		
CSc1ccc(/C=C(\C(=O)c2ccc(Cl)cc2)S(=O)(=O)Cc2ccc(Cl)cc2)cc1 [Example 394]	94 to 108	4.60 to 5.00	4.60 to 5.00		
COc1ccc(/C=C(\C(=O)c2ccc(Br)cc2)S(=O)(=O)Cc2ccc(Cl)cc2)cc1 [Example 395]	152 to 155	4.60 to 5.00	4.30 to 4.60		
Cc1ccc(/C=C(\C(=O)c2ccc(Cl)cc2)S(=O)(=O)Cc2ccc(Cl)cc2)s1 [Example 396]	148 to 152	5.00 to 6.00	5.00 to 6.00		
Cc1ccc(/C=C(\C(=O)c2ccc([N+](=O)[O-])cc2)S(=O)(=O)Cc2ccc(Cl)cc2)s1 [Example 397]	180 to 182	4.60 to 5.00	4.30 to 4.60		
O=C(/C(=C\c1ccc(-c2ccccc2)cc1)S(=O)(=O)Cc1ccc(Cl)cc1)c1ccc(Cl)cc1 [Example 398]	65 to 72	4.30 to 4.60	4.30 to 4.60		
COc1cc(OC)c(/C=C(\C(=O)c2ccc(Br)cc2)S(=O)(=O)Cc2ccc(F)cc2)c(OC)c1 [Example 399]	176 to 182	4.00 to 4.30	4.00 to 4.30		
COc1cc(OC)c(/C=C(\C(=O)c2ccc(Cl)cc2)S(=O)(=O)Cc2ccc(F)cc2)c(OC)c1 [Example 400]	134 to 138	5.00 to 6.00	4.30 to 4.60		
Cc1ccc(C)c(/C=C(\C(=O)c2ccc(Br)cc2)S(=O)(=O)Cc2ccc(F)cc2)c1 [Example 401]	167 to 173	5.00 to 6.00	5.00 to 6.00		
O=C(/C(=C\c1cc([N+](=O)[O-])ccc1F)S(=O)(=O)Cc1ccc(F)cc1)c1ccc(Br)cc1 [Example 403]	172 to 177	4.00 to 4.30	< 4.00		
Cc1cc(C)cc(/C=C(\C(=O)c2ccc(Br)cc2)S(=O)(=O)Cc2ccc(F)cc2)c1 [Example 405]	140 to 143	4.60 to 5.00	4.60 to 5.00		
O=C(/C(=C\c1c[nH]c2ccccc12)S(=O)(=O)Cc1ccc(F)cc1)c1ccc(Cl)cc1 [Example 406]	> 200	4.00 to 4.30	4.00 to 4.30		
Cc1ccsc1/C=C(\C(=O)c1ccc(Cl)cc1)S(=O)(=O)Cc1ccc(F)cc1 [Example 407]	146 to 158	5.00 to 6.00	4.60 to 5.00		
CN(C)c1ccc(/C=C(\C(=O)c2ccc(Br)cc2)S(=O)(=O)Cc2ccc(F)cc2)cc1 [Example 408]	155 to 162	4.00 to 4.30	4.00 to 4.30		
O=C(/C(=C\c1ccc(Br)cc1)S(=O)(=O)Cc1ccc(F)cc1)c1ccc(Br)cc1 [Example 409]	164 to 168	4.60 to 5.00	4.30 to 4.60		
CCOc1ccc(/C=C(\C(=O)c2ccc(Cl)cc2)S(=O)(=O)Cc2ccc(F)cc2)cc1OC [Example 412]	145 to 149	4.30 to 4.60	4.00 to 4.30		
O=C(/C(=C\c1ccc(Br)cc1)S(=O)(=O)Cc1ccc(I)cc1)c1ccc(Br)cc1 [Example 418]	168 to 170			< 4.30	< 4.30
O=C(/C(=C\c1ccc(Br)cc1)S(=O)(=O)Cc1ccc(I)cc1)c1ccc(I)cc1 [Example 419, (E)-1-(4-Iodophenyl)-2-(4-iodobenzylsulfonyl)-3-(4-bromophenyl)prop-2-en-1-one]	180 to 182	4.30 to 4.60	4.30 to 4.60		

From patent US8808702B2, “Sulfide, sulfoxide and sulfone chalcone analogues, derivatives thereof and therapeutic uses thereof” (Temple University-of the Commonwealth System of Higher …, priority 2006, dated 2014)
